From ChEMBL document CHEMBL1129204, “Synthesis of ribofuranosyl glycosides of echiguanines A and B, inhibitors of phosphatidylinositol 4-kinase” (Bioorg Med Chem Lett, 1996)
≈ marks a conversion by molar mass, not a printed value.

Key:
[1] = target: T1, Phosphatidylinositol 4-kinase, PI4K (Homo sapiens, UniProt Q9BTU6+Q8TCG2+Q9UBF8+P42356); test: Inhibition of phosphatidylinositol 4-kinase at 100 ug/ml (weak inhibition); type: protein assay
[2] = target: T1, Phosphatidylinositol 4-kinase, PI4K; test: Inhibition of phosphatidylinositol 4-kinase; type: protein assay

SMILES: N=C(N)CCNC(=O)c1cn(C2O[C@H](CO)C(O)[C@H]2O)c2nc(N)nc(O)c12 (single isomer, unassigned)
- IC50 [1]: weak inhibition

SMILES: N=C(N)CCNC(=O)c1c[nH]c2nc(N)nc(O)c12 [ECHIGUANINE A]
- IC50 [2]: 0.03 µg/mL (≈ 0.114 µM)
